Experimental findings from article PMC12283027, “Development of Potent and Selective RIPK1 Degraders Targeting Its Nonenzymatic Function for Cancer Treatment” (Journal of Medicinal Chemistry, 2025) are described below.

For this assay, the target named is T1, Receptor-interacting protein kinase 1 (RIPK1) (Homo sapiens, UniProt Q13546).
T1 construct: with VHL
Put plainly: cell-based. Conditions: HEK293T-RIPK1-HiBiT cells; read-out: Dmax (HEK293T-RIPK1-HiBiT cell line). Also on record: HiBiT luminescence of CRISPR-tagged endogenous RIPK1 (C-terminal HiBiT) after PROTAC treatment; degradation DC50 and Dmax. The procedure: Screening of RIPK1 Degraders Using HEK-293T-RIPK1-HiBiT cells  3 Primary screening RIPK1 degraders using HEK293T-RIPK1-HiBiT cell line. Cells were seeded in 96-well plates and treated with test compounds for 20 h. After treatment, Bioluminescence signal reflecting RIPK1 protein level was generated by adding Nano-Glo HiBiT detect reagent. A) Bioluminescence signal was visualized using Bio-Rad ChemiDoc MP Imaging system. The grayscale intensity is positively correlated with protein abundance. B) Relative luminescence Units (RLUs) in each well was measured using CLARIOstar plate reader. DC50 values were calculated by nonlinear regression analysis in GraphPad Prism software. DC50 = dose that reduces RIPK1 protein by 50%. D max = maximum reduction of RIPK1 protein achieved by the compound. Guide RNA oligos for RIPK1 (foward: CACCGA-GCCCAT-CCAGGG-TTAGTTC. reverse: AAACGA-ACTAAC-CCTGGA-TGGGCTC) were cloned into Cas9 expression plasmid (pSpCas9–2A-GFP purchased from Addgene), and cotransfected with donor DNA oligo using FuGENE HD Transfection Reagent (Promega). GFP positive cells were FACS sorted and single clones were screened for HiBiT signal by Nano Glo HiBiT Lytic Detection System (Promega).
(HiBiT is a short tag that completes a luciferase, so light tracks the accessible tagged protein.)

In general, Dmax refers to the largest share of the target that was removed.

T1 sequence (Q13546 whole entry): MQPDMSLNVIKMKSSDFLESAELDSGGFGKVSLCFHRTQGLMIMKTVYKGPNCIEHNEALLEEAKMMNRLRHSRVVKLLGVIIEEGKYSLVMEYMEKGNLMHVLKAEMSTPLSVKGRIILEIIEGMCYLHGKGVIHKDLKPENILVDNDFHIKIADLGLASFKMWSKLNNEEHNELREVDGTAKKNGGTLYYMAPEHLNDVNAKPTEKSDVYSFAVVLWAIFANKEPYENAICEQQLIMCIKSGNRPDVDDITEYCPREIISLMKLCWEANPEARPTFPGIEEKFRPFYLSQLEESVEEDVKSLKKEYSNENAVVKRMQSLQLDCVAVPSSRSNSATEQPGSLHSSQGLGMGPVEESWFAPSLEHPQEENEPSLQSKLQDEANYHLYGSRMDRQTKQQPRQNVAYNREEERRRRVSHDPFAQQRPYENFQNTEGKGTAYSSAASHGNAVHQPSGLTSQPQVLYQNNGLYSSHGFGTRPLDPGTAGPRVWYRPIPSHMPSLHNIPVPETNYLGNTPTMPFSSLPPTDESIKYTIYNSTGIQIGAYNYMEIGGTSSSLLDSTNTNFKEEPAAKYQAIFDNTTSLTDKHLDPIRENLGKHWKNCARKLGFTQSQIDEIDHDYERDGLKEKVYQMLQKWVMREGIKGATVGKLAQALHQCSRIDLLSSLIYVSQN
T1 sequence (P40337 whole entry partner): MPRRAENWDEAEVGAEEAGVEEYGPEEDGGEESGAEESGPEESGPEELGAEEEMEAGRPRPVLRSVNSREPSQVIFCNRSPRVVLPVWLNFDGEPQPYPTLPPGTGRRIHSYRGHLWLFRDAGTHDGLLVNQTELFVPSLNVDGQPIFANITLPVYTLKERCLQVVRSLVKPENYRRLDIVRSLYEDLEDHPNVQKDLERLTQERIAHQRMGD

With `Cc1ncsc1-c1ccc([C@H](C)NC(=O)[C@@H]2C[C@@H](O)CN2C(=O)[C@@H](NC(=O)COc2ccc(CCNC(=O)Cn3cc(-c4cnc(N)c5c(-c6ccc7c(c6)CCN7C(=O)Cc6ccccc6)csc45)cn3)cc2)C(C)(C)C)cc1` [204-2], the Dmax was 95%.

Turning to `Cc1ncsc1-c1ccc([C@H](C)NC(=O)[C@@H]2C[C@@H](O)CN2C(=O)[C@@H](NC(=O)CCOc2ccc(CCNC(=O)Cn3cc(-c4cnc(N)c5c(-c6ccc7c(c6)CCN7C(=O)Cc6ccccc6)csc45)cn3)cc2)C(C)(C)C)cc1` [204-4], the Dmax is 96%.

For the compound `Cc1ncsc1-c1ccc([C@H](C)NC(=O)[C@@H]2C[C@@H](O)CN2C(=O)[C@@H](NC(=O)CCCOc2ccc(CCNC(=O)Cn3cc(-c4cnc(N)c5c(-c6ccc7c(c6)CCN7C(=O)Cc6ccccc6)csc45)cn3)cc2)C(C)(C)C)cc1` [204-6], the Dmax worked out at 81%.

Take `Cc1ncsc1-c1ccc([C@H](C)NC(=O)[C@@H]2C[C@@H](O)CN2C(=O)[C@@H](NC(=O)COCCOCCNC(=O)Cn2cc(-c3cnc(N)c4c(-c5ccc6c(c5)CCN6C(=O)Cc5ccccc5)csc34)cn2)C(C)(C)C)cc1` [208-2]: the greatest degradation seen (Dmax) was found to be 78%.

As to `Cc1ncsc1-c1ccc([C@H](C)NC(=O)[C@@H]2C[C@@H](O)CN2C(=O)[C@@H](NC(=O)COCCOCCOCCNC(=O)Cn2cc(-c3cnc(N)c4c(-c5ccc6c(c5)CCN6C(=O)Cc5ccccc5)csc34)cn2)C(C)(C)C)cc1` [208-4], the Dmax was 75%.

In the case of `Cc1ncsc1-c1ccc([C@H](C)NC(=O)[C@@H]2C[C@@H](O)CN2C(=O)[C@@H](NC(=O)COCCOCCOCCOCCNC(=O)Cn2cc(-c3cnc(N)c4c(-c5ccc6c(c5)CCN6C(=O)Cc5ccccc5)csc34)cn2)C(C)(C)C)cc1` [208-6], the Dmax was 55%.

`Cc1ncsc1-c1ccc([C@H](C)NC(=O)[C@@H]2C[C@@H](O)CN2C(=O)[C@@H](NC(=O)COc2ccc(CNC(=O)Cn3cc(-c4cnc(N)c5c(-c6ccc7c(c6)CCN7C(=O)Cc6ccccc6)csc45)cn3)cc2)C(C)(C)C)cc1` [214-6]: the greatest degradation seen (Dmax) was determined as 71%.

As for `Cc1ncsc1-c1ccc([C@H](C)NC(=O)[C@@H]2C[C@@H](O)CN2C(=O)[C@@H](NC(=O)CCCOc2ccc(CNC(=O)Cn3cc(-c4cnc(N)c5c(-c6ccc7c(c6)CCN7C(=O)Cc6ccccc6)csc45)cn3)cc2)C(C)(C)C)cc1` [214-7], the Dmax stood at 81%.

For the compound `Cc1ncsc1-c1ccc([C@H](C)NC(=O)[C@@H]2C[C@@H](O)CN2C(=O)[C@@H](NC(=O)CCCCOc2ccc(CNC(=O)Cn3cc(-c4cnc(N)c5c(-c6ccc7c(c6)CCN7C(=O)Cc6ccccc6)csc45)cn3)cc2)C(C)(C)C)cc1` [214-8], the maximal degradation (Dmax) turned out to be 90%.

With `Cc1ncsc1-c1ccc([C@H](C)NC(=O)[C@@H]2C[C@@H](O)CN2C(=O)[C@@H](NC(=O)CCCCCOc2ccc(CNC(=O)Cn3cc(-c4cnc(N)c5c(-c6ccc7c(c6)CCN7C(=O)Cc6ccccc6)csc45)cn3)cc2)C(C)(C)C)cc1` [214-9], the maximal degradation (Dmax) turned out to be 87%.

As to `Cc1ncsc1-c1ccc([C@H](C)NC(=O)[C@@H]2C[C@@H](O)CN2C(=O)[C@@H](NC(=O)CCCCCCOc2ccc(CNC(=O)Cn3cc(-c4cnc(N)c5c(-c6ccc7c(c6)CCN7C(=O)Cc6ccccc6)csc45)cn3)cc2)C(C)(C)C)cc1` [214-10], the maximal degradation (Dmax) was determined as 92%.

With `Cc1ncsc1-c1ccc([C@H](C)NC(=O)[C@@H]2C[C@@H](O)CN2C(=O)[C@@H](NC(=O)CNC(=O)Cn2cc(-c3cnc(N)c4c(-c5ccc6c(c5)CCN6C(=O)Cc5ccccc5)csc34)cn2)C(C)(C)C)cc1` [216-9], the Dmax is 1%.

Turning to `Cc1ncsc1-c1ccc([C@H](C)NC(=O)[C@@H]2C[C@@H](O)CN2C(=O)[C@@H](NC(=O)CCNC(=O)Cn2cc(-c3cnc(N)c4c(-c5ccc6c(c5)CCN6C(=O)Cc5ccccc5)csc34)cn2)C(C)(C)C)cc1` [216-10], the Dmax stood at 25%.

As to `Cc1ncsc1-c1ccc([C@H](C)NC(=O)[C@@H]2C[C@@H](O)CN2C(=O)[C@@H](NC(=O)CCCNC(=O)Cn2cc(-c3cnc(N)c4c(-c5ccc6c(c5)CCN6C(=O)Cc5ccccc5)csc34)cn2)C(C)(C)C)cc1` [216-11], the maximal degradation (Dmax) was 62%.

As to `Cc1ncsc1-c1ccc([C@H](C)NC(=O)[C@@H]2C[C@@H](O)CN2C(=O)[C@@H](NC(=O)CCCCNC(=O)Cn2cc(-c3cnc(N)c4c(-c5ccc6c(c5)CCN6C(=O)Cc5ccccc5)csc34)cn2)C(C)(C)C)cc1` [216-12], the Dmax is 51%.

For `Cc1ncsc1-c1ccc([C@H](C)NC(=O)[C@@H]2C[C@@H](O)CN2C(=O)[C@@H](NC(=O)CCCCCNC(=O)Cn2cc(-c3cnc(N)c4c(-c5ccc6c(c5)CCN6C(=O)Cc5ccccc5)csc34)cn2)C(C)(C)C)cc1` [216-13], the maximal degradation (Dmax) was determined as 93%.

In the case of `Cc1ncsc1-c1ccc([C@H](C)NC(=O)[C@@H]2C[C@@H](O)CN2C(=O)[C@@H](NC(=O)CCCCCCNC(=O)Cn2cc(-c3cnc(N)c4c(-c5ccc6c(c5)CCN6C(=O)Cc5ccccc5)csc34)cn2)C(C)(C)C)cc1` [216-14], the maximal degradation (Dmax) worked out at 88%.

As for `Cc1ncsc1-c1ccc([C@H](C)NC(=O)[C@@H]2C[C@@H](O)CN2C(=O)[C@@H](NC(=O)CCCCCCCNC(=O)Cn2cc(-c3cnc(N)c4c(-c5ccc6c(c5)CCN6C(=O)Cc5ccccc5)csc34)cn2)C(C)(C)C)cc1` [216-15], the Dmax was found to be 94%.

On to `Cc1ncsc1-c1ccc([C@H](C)NC(=O)[C@@H]2C[C@@H](O)CN2C(=O)[C@@H](NC(=O)CCCCCCCCNC(=O)Cn2cc(-c3cnc(N)c4c(-c5ccc6c(c5)CCN6C(=O)Cc5ccccc5)csc34)cn2)C(C)(C)C)cc1` [216-16], for which the maximal degradation (Dmax) is 93%.

For `Cc1ncsc1-c1ccc([C@H](C)NC(=O)[C@@H]2C[C@@H](O)CN2C(=O)[C@@H](NC(=O)COc2ccc(NC(=O)Cn3cc(-c4cnc(N)c5c(-c6ccc7c(c6)CCN7C(=O)Cc6ccccc6)csc45)cn3)cc2)C(C)(C)C)cc1` [217-10], the Dmax came to 96%.

Take `Cc1ncsc1-c1ccc([C@H](C)NC(=O)[C@@H]2C[C@@H](O)CN2C(=O)[C@@H](NC(=O)CCCOc2ccc(NC(=O)Cn3cc(-c4cnc(N)c5c(-c6ccc7c(c6)CCN7C(=O)Cc6ccccc6)csc45)cn3)cc2)C(C)(C)C)cc1` [217-11]: the Dmax turned out to be 95%.

For `Cc1ncsc1-c1ccc([C@H](C)NC(=O)[C@@H]2C[C@@H](O)CN2C(=O)[C@@H](NC(=O)CCCCOc2ccc(NC(=O)Cn3cc(-c4cnc(N)c5c(-c6ccc7c(c6)CCN7C(=O)Cc6ccccc6)csc45)cn3)cc2)C(C)(C)C)cc1` [217-12], the Dmax stood at 93%.

Regarding `Cc1ncsc1-c1ccc([C@H](C)NC(=O)[C@@H]2C[C@@H](O)CN2C(=O)[C@@H](NC(=O)CCCCCOc2ccc(NC(=O)Cn3cc(-c4cnc(N)c5c(-c6ccc7c(c6)CCN7C(=O)Cc6ccccc6)csc45)cn3)cc2)C(C)(C)C)cc1` [217-13], the Dmax stood at 92%.

As to `Cc1ncsc1-c1ccc([C@H](C)NC(=O)[C@@H]2C[C@@H](O)CN2C(=O)[C@@H](NC(=O)COCCOc2ccc(CNC(=O)Cn3cc(-c4cnc(N)c5c(-c6ccc7c(c6)CCN7C(=O)Cc6ccccc6)csc45)cn3)cc2)C(C)(C)C)cc1` [224-5], the greatest degradation seen (Dmax) worked out at 93%.

In the case of `Cc1ncsc1-c1ccc([C@H](C)NC(=O)[C@@H]2C[C@@H](O)CN2C(=O)[C@@H](NC(=O)COCCOc2ccc(CCNC(=O)Cn3cc(-c4cnc(N)c5c(-c6ccc7c(c6)CCN7C(=O)Cc6ccccc6)csc45)cn3)cc2)C(C)(C)C)cc1` [224-6], the greatest degradation seen (Dmax) is 93%.

On to `Cc1ncsc1-c1ccc([C@H](C)NC(=O)[C@@H]2C[C@@H](O)CN2C(=O)[C@@H](NC(=O)COCCOCCOc2ccc(CNC(=O)Cn3cc(-c4cnc(N)c5c(-c6ccc7c(c6)CCN7C(=O)Cc6ccccc6)csc45)cn3)cc2)C(C)(C)C)cc1` [224-7], for which the greatest degradation seen (Dmax) was determined as 93%.

In the case of `Cc1ncsc1-c1ccc([C@H](C)NC(=O)[C@@H]2C[C@@H](O)CN2C(=O)[C@@H](NC(=O)COCCOCCOc2ccc(CCNC(=O)Cn3cc(-c4cnc(N)c5c(-c6ccc7c(c6)CCN7C(=O)Cc6ccccc6)csc45)cn3)cc2)C(C)(C)C)cc1` [224-8], the Dmax is 92%.

Turning to `Cc1ncsc1-c1ccc([C@H](C)NC(=O)[C@@H]2C[C@@H](O)CN2C(=O)[C@@H](NC(=O)CN2CCN(C3CCN(C(=O)Cn4cc(-c5cnc(N)c6c(-c7ccc8c(c7)CCN8C(=O)Cc7ccccc7)csc56)cn4)CC3)CC2)C(C)(C)C)cc1` [225-2], the greatest degradation seen (Dmax) stood at 91%.

On to `Cc1ncsc1-c1ccc([C@H](C)NC(=O)[C@@H]2C[C@@H](O)CN2C(=O)[C@@H](NC(=O)CN2CCN(C(=O)Cn3cc(-c4cnc(N)c5c(-c6ccc7c(c6)CCN7C(=O)Cc6ccccc6)csc45)cn3)CC2)C(C)(C)C)cc1` [225-3], for which the Dmax amounted to 87%.

Consider `Cc1ncsc1-c1ccc([C@H](C)NC(=O)[C@@H]2C[C@@H](O)CN2C(=O)[C@@H](NC(=O)CN2CCN(CC3CCN(C(=O)Cn4cc(-c5cnc(N)c6c(-c7ccc8c(c7)CCN8C(=O)Cc7ccccc7)csc56)cn4)CC3)CC2)C(C)(C)C)cc1` [225-4], for which the maximal degradation (Dmax) amounted to 93%.
